Measured values: patent US20160030364A1, “Therapeutic Compositions and Uses Thereof” (MANUKA HEALTH NEW ZEALAND LIMITED, priority 2013, published 2016)

Test system: human colorectal adenocarcinoma cells (DLD-1)
Test: MTT proliferation assay, DLD-1 (Examples 1-2)
Assay type: cell-based
Procedure: (§1) Test samples shown below in Table 2 were assessed for their ability to modulate the viability and proliferation of human colorectal adenocarcinoma cells (DLD-1) as assessed by the MTT assay. A positive control, 5-fluorouracil (5-FU) was included in addition to an unsupplemented cell control (negative control) in the study. The test samples were obtained by fractionation of propolis tincture.
as §1, with “study.” for “study. The test samples were obtained by fractionation of propolis tincture.”
Human colorectal adenocarcinoma epithelial cell lines were revived from cryostorage and cultured in the presence of the test and reference samples. The culture conditions for the cells were those described by the supplier of the cells (ATCC). An MTT assay was then performed on the cultures to determine the effect of the samples on the cell proliferation.
Working solutions were prepared by dissolving the test fractions in 15% ethanol (ETOH)/HBSS to a concentration of 2 mg/mL solids.
• 1. Human colorectal adenocarcinoma cells (ATCC CCI-221, DLD-1). • 2. Penicillin-streptomycin solution: 10000 units/mL penicillin, 10 mg/mL streptomycin in 0.9% NaCl (Sigma Cat #P-0781). Stored at −20° C. • 3. DMEM culture medium (Invitrogen Cat #12100-046) Stored at −20° C. • 4. Trypsin-EDTA solution: 0.25% Trypsin/EDTA, Invitrogen Cat#15400054 (×10 in stock). • 5. Phosphate buffered saline (PBS) (Prepared by TBL). • 6. Hanks Balanced Salt Solution (HBSS). (GIBCO Cat No. 14185-052). Stored at 4° C. • 7. Foetal Bovine Serum (GIBCO Cat #10091-148). Stored at −20° C. • 8. MTT Reagent: 100 mg/vial, (SIGMA Cat. No. M-2128) dissolved in PBS at 10 mg/mL and stored at −20° C. 5 mg/mL MTT solution were prepared in PBS and stored at 4° C. as working solution. • 9. MTT lysis buffer: 10% sodium dodecyl sulphate (SDS)/45% Dimethyl Formamide (20 g SDS was dissolved in 100 mL of double-distilled water (DDW), and 90 mL of Dimethyl Formamide added to the SDS solution). The pH was adjusted to 4.7 by glacial acetic acid, and DDW added up to a final volume of 200 mL. • 10. 5-Fluorouracil (5-FU), (Sigma Cat. No. F-6627). Two working solutions were prepared at 150 ng/mL and 75 ng/mL, dissolved in 15% Ethanol/HBSS. Final concentrations were 7.50 ng/mL and 3.75 ng/mL.
The medium for the propagation of the colorectal adenocarcinoma (DLD-1) cells was DMEM, supplemented with penicillin-streptomycin solution (10 mL per litre). FBS was added just before use to give 10% w/v.
• 1. The human colorectal adenocarcinoma cells (DLD-1) obtained from the American Type Culture Collection USA were revived from cryostorage. • 2. Following initial propagation using the media described above (see Medium Preparation), the culture was subcultured using the trypsin-EDTA as follows. The media was removed and 5 mL of the trypsin-EDTA solution added and incubated at 37° C. for 5 min or until all the cells had detached. The trypsin was neutralised by adding an equal volume of DMEM medium and the culture centrifuged at 300 g (1200 rpm) for 5 min at 4° C. • 3. The supernatant was decanted and the cell pellets resuspended in medium DMEM, FBS (10%), penicillin (100 units/mL), streptomycin (100 μg/mL). The cells were cultured at 37° C. in 5% CO2/95% air. • 4. After reaching confluence, the cells were detached using trypsin-EDTA and centrifuged as described in 2 above. • 5. The supernatants were discarded and the cells resuspended in DMEM and supplements as described in 3 above at 1.0×10^4 cells per mL. • 6. Into each well of three 96 well plates, 180 μl of the cells (1,800 cells/well) or medium was added. The plates were incubated at 5% CO2/95% air at 37° C. for 48 h which was sufficient to allow the cells to adhere. • 7. To each well, 20 μl of each, of the test samples or positive control was added. […]

[1] = Example 2, DLD-1, sample 200 μg/mL, 24 hours incubation

SMILES: O=C1C[C@@H](c2ccccc2)Oc2cc(O)cc(O)c21 [Pinocembrin, reference compound]
- Mean OD (570 nm) [1]: 0.0196
- inhibition at 200 µg/mL (Homo sapiens, Example 2, DLD-1, sample 200 μg/mL, 24 hours incubation): 94%

SMILES: O=c1[nH]cc(F)c(=O)[nH]1 [Sample 5-FU, 5-fluorouracil, reference compound]
- Mean OD (570 nm) (Example 1, DLD-1, 5-FU 7.50 ng/ml): 0.657
- inhibition at 0.0075 µg/mL (Homo sapiens, Example 1, DLD-1, 5-FU 7.50 ng/ml): 6.69%

SMILES: COc1cc(O)c2c(=O)cc(-c3ccccc3)oc2c1 [Tectochrysin, tectochrysin]
- % inhibition [1]: 29.45%
- Mean OD (570 nm) [1]: 0.2285

SMILES: O=C(O)/C=C/c1ccc(O)cc1 [p-coumaric acid, para-coumaric acid, reference compound]
- activity against DLD-1 (isolated from NZ propolis, data not shown in Example 2): inactive
